Key:
[1] = tested on: SMN protein; assay: Immunoblot analyses of SMN protein expression in spinal muscular atrophy fibroblasts; type: cell-based, human
Procedure: Cell lysates were collected in mammalian protein extraction reagent (m-PER; Thermo Scientific, Rockford, Ill.) plus 1×protease inhibitor (Sigma-Aldrich) and 1×Halt phosphatase inhibitor (Thermo Scientific). Denatured SDS-PAGE and immunoblot analyses were performed using the following antibodies: phosphorylated JNK and β-actin from Santa Cruz Biotechnology, HSP70, HSP90, BIP, phosphorylated eIF2α, and XBP1 from Cell Signaling, APG8 (Abgent, San Diego, Calif.), and SOD2 (Stressgen, Ann Arbor, Mich.). Quantitation was performed using a Fuji Intelligent Dark box II, FUJI LAS-1000 Lite software and Image Gauge v4.22 software (Tokyo, Japan).
Spinal muscular atrophy type I (SMA I; GM09677, n=7) or type III (SMA III; 2906, n=2) fibroblasts were treated with either 1.5 mM SFN or 0.5-2 mM SFN, respectively, for 48-72 hr. The average of the relative expression of SMN protein (39 kDa) is plotted. Actin (43 kDa) was used as a loading control.
Spinal muscular atrophy type I (SMA I; GM09677) fibroblasts were treated with either […] HU (n=1) or 1.5 mM SFN (n≧3) in the presence or absence of 10 mM SP600125 (JNK inhibitor), 1 mM 3-methyladenine (APG inhibitor), 2-4 mg/ml antimycin A (MITO inhibitor) or 2 mM sirtinol (SIRT1 inhibitor) for 48 h. SMN protein expression was measured by quantitative immunoblot analyses using actin as a loading control. Fold increases in SMN protein expression are plotted and represented numerically in the table below the graph. Untreated values are normalized to 1. (*P≦0.05; bars=SEM).

[2] = tested on: JUN, PGC1α and PGC1β; assay: RT-PCR of JUN and mitochondrial transcription factors; type: cell-based, human; conditions: FIG. 2E; for PGC1α and PGC1β transcript levels (abundance of mitochondrial transcription factors): 48 hours or more of treatment; for JUN transcript levels: normal human fibroblasts, six hours of treatment
Procedure: (§1) Following the manufacturer's protocols, DNase I-treated cDNA was synthesized using Superscript III or Thermoscript reverse transcriptase (Invitrogen). PCR reactions were performed in duplicate on the Roche Lightcycler 3.5 (Basel, Switzerland) or the Bio-Rad iCycler (Hercules, Calif.) using Quantitech SYBR green PCR mix (Qiagen, Valencia, Calif.). GeNorm software calculated a normalization factor for each sample using the relative amounts of at least two of the following reference genes, β2-microglobulin, glyceraldehyde-6-phosphate, actin, and/or eukaryotic elongation factor 1A (Vandesompele et al., 2002).
The relative gene expression for each treatment compared to untreated normal human fibroblasts was calculated and the fold change (drug treated/untreated) is shown.

[3] = Zhao et al., 2005; Clarke et al., 2011; cited from earlier work
[4] = tested on: HSPA1A (HSP70), DNAJC3 (HSP40), HSP90AA1 (HSP90); assay: RT-PCR of heat shock response (HSR) genes; type: cell-based, human; conditions: for transcription of HSPA1A (HSP70): FIG. 3A
Procedure: as §1
Expression of key components of the HSR, UPR, the autophagic response, and the antioxidant response were monitored at the transcriptional, translational, and/or post-translational level. […] Due to the transient nature of these responses, several components of each pathway were monitored at various time points within a 24 hour treatment. At least two normal human fibroblast lines were tested in three or more independent experiments. […] The average of the maximal increase in protein expression within a 24 hour time frame was also compared to the untreated sample. Activation of each pathway was assessed by an increase in one or more components of each pathway.
To evaluate its activation, the expression of heat shock protein (HSP) 40, HSP 70, and HSP 90 family members was monitored. […] Normal human fibroblasts were treated and the mRNA expression of HSPA1A (HSP70), DNAJC3 (HSP40), and HSP90AA1 (HSP90) was measured and plotted as in FIG. 2E.

[5] = tested on: SIRT1; assay: SIRT1 protein expression in normal human fibroblasts; type: cell-based
[6] = tested on: Ischemia; conditions: Qi et al., 2004, Yoon et al., 2008; cited from earlier work
[7] = target: T1, human recombinant SIRT1 (Homo sapiens, UniProt Q96EB6); assay: Fluorescence-based SIRT1 activity assay; type: biochemical; conditions: for SIRT1 activity: low and high (10 times) concentration, FIG. 9
T1 construct: purchased Cayman Chemical Company 10010401
T1 sequence (Q96EB6 1-747): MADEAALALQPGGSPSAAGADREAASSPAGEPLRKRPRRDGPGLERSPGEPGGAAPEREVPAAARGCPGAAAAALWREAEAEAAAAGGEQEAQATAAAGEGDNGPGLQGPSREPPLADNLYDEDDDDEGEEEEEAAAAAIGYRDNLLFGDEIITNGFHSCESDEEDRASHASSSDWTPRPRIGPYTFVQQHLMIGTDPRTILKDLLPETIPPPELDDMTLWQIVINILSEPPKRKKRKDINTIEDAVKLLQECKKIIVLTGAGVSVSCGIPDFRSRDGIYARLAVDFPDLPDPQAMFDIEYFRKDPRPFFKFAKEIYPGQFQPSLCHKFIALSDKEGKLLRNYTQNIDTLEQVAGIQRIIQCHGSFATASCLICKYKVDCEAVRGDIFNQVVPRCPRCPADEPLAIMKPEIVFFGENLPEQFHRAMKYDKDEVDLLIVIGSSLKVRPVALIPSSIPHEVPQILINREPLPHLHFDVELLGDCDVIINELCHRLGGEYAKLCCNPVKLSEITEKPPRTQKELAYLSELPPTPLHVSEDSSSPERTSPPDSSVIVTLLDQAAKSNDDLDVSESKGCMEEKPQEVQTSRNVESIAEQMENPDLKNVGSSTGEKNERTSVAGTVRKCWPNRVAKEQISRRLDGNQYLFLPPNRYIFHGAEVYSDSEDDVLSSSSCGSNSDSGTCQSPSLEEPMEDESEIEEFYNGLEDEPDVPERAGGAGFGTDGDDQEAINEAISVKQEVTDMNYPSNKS
Procedure: A fluorescence-based SIRT1 activity assay was performed in triplicate following the manufacturer's protocol (10010401; Cayman Chemical Company, Ann Arbor, Mich., USA). The percent developer interference was below 3% for each small molecule. The percent fluorophore interference was below 9% for each small molecule. The acceptable interference values were ≦10%.
To determine whether SIRT1 activation was a common biochemical activity of the small molecules under study, a fluorescence-based in vitro SIRT1 activity assay was performed with two concentrations of each drug: that used to treat normal primary human fibroblasts in the experiments reported here (low), and 10 times that concentration, which is lethal in cell culture (high). […] This was a non-cell-based assay, and therefore, it is difficult to determine the effects of 4PBA and SFN on SIRT1 activity in vivo. Regardless, while SIRT1 activation may play a role in the induction of cellular stress responses (Anastasiou et al., 2006), direct biochemical activation or inhibition of SIRT1 is not necessary for the common pharmacological induction of the adaptive cell survival response by all four small molecules.
SIRT1 activity assay. SIRT1 activity was measured by incubating an acetylated lysine substrate with human recombinant SIRT1, cosubstrate NAD+ and the indicated concentration of each small molecule. The percent inhibition of SIRT1 is plotted. (Bars=SEM for triplicate measurements; *p≦0.05; paired t-test).

[8] = tested on: HSF1; conditions: luciferase reporter system; cited from earlier work
[9] = tested on: Spinal Muscular Atrophy; conditions: Lunn et al., 2008; cited from earlier work
[10] = tested on: human XALD fibroblasts; conditions: McGuinness et al., 2003; cited from earlier work
[11] = tested on: Cystic Fibrosis; conditions: Choo-Kang et al., 2001, Hutt et al., 2010; cited from earlier work
[12] = tested on: ALD (Abcd1−/Y) mouse model; conditions: ALD (Abcd1−/Y) mouse model in vivo; McGuinness et al., 2003; cited from earlier work
[13] = tested on: X-linked Adrenoleukodystrophy; conditions: McGuiness et al., 2003; cited from earlier work
[14] = separate experiments, SMA I GM09677, 300 mM HU or 1.5 mM SFN, 48 h, FIG. 8D

Row | Molecule | SMN protein expression increase [1, 14] | PGC1α and PGC1β transcript levels (abundance of mitochondrial transcription factors) [2] | JUN transcript levels [2] | transcription of HSPA1A (HSP70) ([4]; normal human fibroblasts) | SIRT1 protein expression [5] | Therapeutic Effect [6] | Therapeutic Effect [9] | abnormally high levels of very long chain fatty acids (VLCFA) [10] | Therapeutic Effect [11] | abnormally high levels of very long chain fatty acids (VLCFA) [12] | Therapeutic Effect [13] | SIRT1 activity [7] | further results
1 | C[S@@+]([O-])CCCCN=C=S [SFN, 1-isothiocyanato-4R-(methylsulfinyl)butane] | 1.46 fold | increased | not consistently changed | increased | no marked changes | protection via antioxidant | – | – | – | – | – | – | SMN protein expression increase ([1]; spinal muscular atrophy type I fibroblasts (GM09677), 1.5 mM SFN, 48-72 hr., FIG. 8C): 1.57 fold; SMN protein expression increase ([1]; spinal muscular atrophy type III fibroblasts (2906), 0.5-2 mM SFN, 48-72 hr., FIG. 8C): 1.64 fold; blood brain barrier crossing [3]: crosses the blood brain barrier; transcription of HSP40 increase ([4]; in vitro sulforaphane studies): 3 fold; transcription of HSP70 increase ([4]; in vitro sulforaphane studies): 7 fold; transcription of HSP 90 increase ([4]; in vitro sulforaphane studies): 3 fold; mRNA expression of heat-shock proteins genes increase ([4]; normal human fibroblasts, 5 micromolar (μM)): 3-7 fold; inhibition at 5000 µM ([7]; 5 mM): 14%; inhibition at 50000 µM ([7]; 50 mM): 40%; HSF1 mediated transcription of the reporter [8]: activated
2 | 4-phenylbutyrate [4PBA] | – | increased | significantly increased | increased | no marked changes | protection via antioxidant | increase percentage of full | normalized | increase proper protein | normalized | decrease very long chain | – | inhibition of SIRT1 activity ([7]; 50 mM, high): 54%
3 | CC(/C=C/C(=O)NO)=C\[C@@H](C)C(=O)c1ccc(N(C)C)cc1 [TSA, trichostatin A] | – | increased | significantly increased | increased | no marked changes | – | increase percentage of full | normalized | increase proper protein | normalized | decrease very long chain | no effect | –
4 | NC(=O)NO [HU, hydroxyurea] | 1.4 fold | increased | significantly increased | not stimulated | no marked changes | – | increase percentage of full | – | – | – | – | no effect | –

— patent US8937050B2, “Methods and compositions for treatment of autism” (The Johns Hopkins University, priority 2011, dated 2015)
